Assay results as given in ChEMBL document CHEMBL4270599, “Synthesis of a 3'-C-ethynyl-β-d-ribofuranose purine nucleoside library: Discovery of C7-deazapurine analogs as potent antiproliferative nucleosides” (Eur J Med Chem, 2018).

Key:
Format in all cases: functional
HOP-92 = experiment: Growth inhibition of human HOP92 cells assessed as cell growth at 10^-7 M incubated for 48 hrs by sulforhodamine B assay relative to control; details: HOP-92, 48 h, read-out: Activity
Malme-3M = experiment: Growth inhibition of human MALME-3M cells assessed as cell growth at 10^-6 M incubated for 48 hrs by sulforhodamine B assay relative to control; details: read-out: Activity
KM12 = experiment: Growth inhibition of human KM12 cells assessed as cell growth at 10^-4 M incubated for 48 hrs by sulforhodamine B assay relative to control; details: KM12, 48 h, read-out: Activity
MOLT-4 [1] = experiment: Cytotoxicity against human MOLT4 cells after 48 hrs by SRB assay; details: MOLT-4, 48 h
SF-268 = experiment: Growth inhibition of human SF268 cells assessed as cell growth at 10^-7 M incubated for 48 hrs by sulforhodamine B assay relative to control; details: SF-268, 48 h, read-out: Activity
IGROV-1 [2] = experiment: Cytotoxicity against human IGROV1 cells after 48 hrs by SRB assay; details: IGROV-1, 48 h; for CC50: read-out: LC50 (the source's name)
RPMI-8226 = experiment: Growth inhibition of human RPMI8226 cells assessed as cell growth at 10^-8 M incubated for 48 hrs by sulforhodamine B assay relative to control; details: RPMI-8226, 48 h, read-out: Activity
K562 = experiment: Growth inhibition of human K562 cells assessed as cell growth at 10^-5 M incubated for 48 hrs by sulforhodamine B assay relative to control; details: K562, 48 h, read-out: Activity
OVCAR-8 = experiment: Growth inhibition of human OVCAR8 cells assessed as cell growth at 10^-7 M incubated for 48 hrs by sulforhodamine B assay relative to control; details: OVCAR-8, 48 h, read-out: Activity
Hs-578T [3] = experiment: Growth inhibition of human Hs 578T cells assessed as cell growth at 10^-8 M incubated for 48 hrs by sulforhodamine B assay relative to control; details: read-out: Activity
EKVX = experiment: Cytotoxicity against human EKVX cells after 48 hrs by SRB assay; details: for CC50: read-out: pLC50 (the source's name) (converted)
SK-MEL-28 = experiment: Growth inhibition of human SK-MEL-28 cells assessed as cell growth at 10^-7 M incubated for 48 hrs by sulforhodamine B assay relative to control; details: SK-MEL-28, 48 h, read-out: Activity
LOX IMVI = experiment: Cytotoxicity against human LOXIMVI cells after 48 hrs by SRB assay
NCI-H322M [4] = experiment: Growth inhibition of human NCI-H322M cells assessed as cell growth at 10^-8 M incubated for 48 hrs by sulforhodamine B assay relative to control; details: read-out: Activity
IGROV-1 [5] = experiment: Growth inhibition of human IGROV1 cells assessed as cell growth at 10^-7 M incubated for 48 hrs by sulforhodamine B assay relative to control; details: IGROV-1, 48 h, read-out: Activity
DU-145 = experiment: Cytotoxicity against human DU145 cells after 48 hrs by SRB assay; details: DU-145, 48 h
SK-MEL-2 = experiment: Growth inhibition of human SK-MEL-2 cells assessed as cell growth at 10^-6 M incubated for 48 hrs by sulforhodamine B assay relative to control; details: SK-MEL-2, 48 h, read-out: Activity
A498 = experiment: Growth inhibition of human A498 cells assessed as cell growth at 10^-6 M incubated for 48 hrs by sulforhodamine B assay relative to control; details: A498, 48 h, read-out: Activity
NCI/ADR-RES = experiment: Growth inhibition of human NCI/ADR-RES cells assessed as cell growth at 10^-7 M incubated for 48 hrs by sulforhodamine B assay relative to control; details: read-out: Activity
U-251 [6] = experiment: Cytotoxicity against human U251 cells after 48 hrs by SRB assay; details: U-251, 48 h; for CC50: read-out: pLC50 (the source's name) (converted)
UACC-62 = experiment: Growth inhibition of human UACC62 cells assessed as cell growth at 10^-8 M incubated for 48 hrs by sulforhodamine B assay relative to control; details: UACC-62, 48 h, read-out: Activity
OVCAR-3 = experiment: Growth inhibition of human OVCAR3 cells assessed as cell growth at 10^-4 M incubated for 48 hrs by sulforhodamine B assay relative to control; details: OVCAR-3, 48 h, read-out: Activity
OVCAR-5 = experiment: Growth inhibition of human OVCAR5 cells assessed as cell growth at 10^-6 M incubated for 48 hrs by sulforhodamine B assay relative to control; details: OVCAR-5, 48 h, read-out: Activity
HCT-15 = experiment: Growth inhibition of human HCT15 cells assessed as cell growth at 10^-7 M incubated for 48 hrs by sulforhodamine B assay relative to control; details: HCT-15, 48 h, read-out: Activity
NCI-H522 = experiment: Growth inhibition of human NCI-H522 cells assessed as cell growth at 10^-7 M incubated for 48 hrs by sulforhodamine B assay relative to control; details: NCI-H522, 48 h, read-out: Activity
Hs-578T [7] = experiment: Growth inhibition of human Hs 578T cells assessed as cell growth at 10^-6 M incubated for 48 hrs by sulforhodamine B assay relative to control; details: read-out: Activity
NCI-H460 = experiment: Growth inhibition of human NCI-H460 cells assessed as cell growth at 10^-8 M incubated for 48 hrs by sulforhodamine B assay relative to control; details: NCI-H460, 48 h, read-out: Activity
NCI-H226 = experiment: Growth inhibition of human NCI-H226 cells assessed as cell growth at 10^-5 M incubated for 48 hrs by sulforhodamine B assay relative to control; details: NCI-H226, 48 h, read-out: Activity
COLO 205 = experiment: Growth inhibition of human COLO205 cells assessed as cell growth at 10^-8 M incubated for 48 hrs by sulforhodamine B assay relative to control; details: COLO 205, 48 h, read-out: Activity
NCI-H322M [8] = experiment: Growth inhibition of human NCI-H322M cells assessed as cell growth at 10^-5 M incubated for 48 hrs by sulforhodamine B assay relative to control; details: read-out: Activity
U-251 [9] = experiment: Growth inhibition of human U251 cells assessed as cell growth at 10^-4 M incubated for 48 hrs by sulforhodamine B assay relative to control; details: U-251, 48 h, read-out: Activity
MOLT-4 [10] = experiment: Growth inhibition of human MOLT4 cells assessed as cell growth at 10^-6 M incubated for 48 hrs by sulforhodamine B assay relative to control; details: MOLT-4, 48 h, read-out: Activity
[11] = read-out: pLC50 (the source's name) (converted)
[12] = read-out: LC50 (the source's name)

C#C[C@@]1(O)[C@@H](CO)O[C@@H](n2cc(I)c3c(N)ncnc32)[C@@H]1O
growth at 0.1 µM (HOP-92): 38 to 70%
growth at 1 µM (Malme-3M): 39 to 61%
growth at 100 µM (KM12): 3 to 9%
GI50 (MOLT-4 [1]; read-out: GI50): 0.0489 to 0.108 µM
TGI (MOLT-4 [1]; read-out: TGI): 0.831 µM
CC50 (MOLT-4 [1]; [11]): > 100 µM
TGI (MOLT-4 [1]; read-out: pTGI (converted)): 0.832 µM
growth at 0.1 µM (SF-268): 70 to 73%
CC50 (IGROV-1 [2]): > 100 µM
growth at 0.01 µM (RPMI-8226): 95 to 96%
growth at 10 µM (K562): 7%
growth at 0.1 µM (OVCAR-8): 32 to 35%
growth at 0.01 µM (Hs-578T [3]): 78 to 87%
GI50 (EKVX; read-out: GI50): 0.395 to 0.421 µM
TGI (EKVX; read-out: TGI): 4.04 to 7.14 µM
CC50 (EKVX): > 100 µM
growth at 0.1 µM (SK-MEL-28): 86 to 88%
GI50 (LOX IMVI; read-out: GI50): 0.0397 to 0.0812 µM
CC50 (LOX IMVI; [12]): > 100 µM
TGI (LOX IMVI; read-out: TGI): 0.241 to 1.22 µM
growth at 0.01 µM (NCI-H322M [4]): 75 to 86%
growth at 0.1 µM (IGROV-1 [5]): 5 to 13%
GI50 (DU-145; read-out: GI50): 0.0983 to 0.164 µM
TGI (DU-145; read-out: TGI): > 100 µM
CC50 (DU-145; [11]): > 100 µM
TGI (DU-145; read-out: pTGI (converted)): > 100 µM
growth at 1 µM (SK-MEL-2): 11 to 24%
growth at 1 µM (A498): 1 to 29%
growth at 0.1 µM (NCI/ADR-RES): 41 to 47%
GI50 (U-251 [6]; read-out: GI50): 0.0673 to 0.0802 µM
TGI (U-251 [6]; read-out: TGI): 10.2 to 100 µM
CC50 (U-251 [6]): > 100 µM
growth at 0.01 µM (UACC-62): 95%
growth at 100 µM (OVCAR-3): 1 to 2%
growth at 1 µM (OVCAR-5): 43 to 64%
growth at 0.1 µM (HCT-15): 51 to 60%
growth at 0.1 µM (NCI-H522): 42 to 64%
growth at 1 µM (Hs-578T [7]): 38 to 53%
growth at 0.01 µM (NCI-H460): 91 to 92%
growth at 10 µM (NCI-H226): 6 to 10%
growth at 0.01 µM (COLO 205): 79 to 98%

C#C[C@@]1(O)[C@@H](CO)O[C@@H](n2ccc3c(N)ncnc32)[C@@H]1O
growth at 0.1 µM (HOP-92): 104%
growth at 1 µM (Malme-3M): 72%
growth at 100 µM (KM12): -52%
CC50 (MOLT-4 [1]; [12]): > 100 µM
TGI (MOLT-4 [1]; read-out: TGI): > 100 µM
GI50 (MOLT-4 [1]; read-out: pGI50 (converted)): 0.617 µM
TGI (MOLT-4 [1]; read-out: pTGI (converted)): > 100 µM
growth at 0.1 µM (SF-268): 95%
CC50 (IGROV-1 [2]): > 100 µM
TGI (IGROV-1 [2]; read-out: TGI): 5.85 µM
GI50 (IGROV-1 [2]; read-out: pGI50 (converted)): 1.45 µM
TGI (IGROV-1 [2]; read-out: pTGI (converted)): 5.89 µM
growth at 0.01 µM (RPMI-8226): 103%
growth at 10 µM (NCI-H322M [8]): -16%
growth at 10 µM (K562): 6%
growth at 100 µM (U-251 [9]): -30%
growth at 0.1 µM (OVCAR-8): 106%
growth at 0.01 µM (Hs-578T [3]): 97%
TGI (EKVX; read-out: TGI): 5.43 µM
GI50 (EKVX; read-out: pGI50 (converted)): 1.51 µM
CC50 (EKVX): > 100 µM
TGI (EKVX; read-out: pTGI (converted)): 5.37 µM
growth at 0.1 µM (SK-MEL-28): 97%
TGI (LOX IMVI; read-out: TGI): 2.05 µM
GI50 (LOX IMVI; read-out: pGI50 (converted)): 0.661 µM
CC50 (LOX IMVI; [11]): 5.13 µM
TGI (LOX IMVI; read-out: pTGI (converted)): 2.04 µM
growth at 0.01 µM (NCI-H322M [4]): 99%
growth at 0.1 µM (IGROV-1 [5]): 100%
CC50 (DU-145; [12]): > 100 µM
TGI (DU-145; read-out: TGI): 6.55 µM
GI50 (DU-145; read-out: pGI50 (converted)): 0.562 µM
TGI (DU-145; read-out: pTGI (converted)): 6.61 µM
growth at 1 µM (SK-MEL-2): 60%
growth at 1 µM (A498): 80%
growth at 0.1 µM (NCI/ADR-RES): 92%
TGI (U-251 [6]; read-out: TGI): 11.8 µM
GI50 (U-251 [6]; read-out: pGI50 (converted)): 2.45 µM
CC50 (U-251 [6]): > 100 µM
TGI (U-251 [6]; read-out: pTGI (converted)): 11.7 µM
growth at 0.01 µM (UACC-62): 97%
growth at 100 µM (OVCAR-3): -36%
growth at 1 µM (OVCAR-5): 106%
growth at 0.1 µM (HCT-15): 93%
growth at 1 µM (MOLT-4 [10]): 38%
growth at 0.1 µM (NCI-H522): 78%
growth at 1 µM (Hs-578T [7]): 114%
growth at 0.01 µM (NCI-H460): 89%
growth at 10 µM (NCI-H226): -42%
growth at 0.01 µM (COLO 205): 95%
